Data: PMC7170299, “Design, synthesis, molecular modelling and biological evaluation of novel 3-(2-naphthyl)-1-phenyl-1H-pyrazole derivatives as potent antioxidants and 15-Lipoxygenase inhibitors” (Journal of Enzyme Inhibition and Medicinal Chemistry, 2020)
Each block holds one molecule with its values, some of them ahead of it.

Tests used:
[1] = design: method as in PMID 24752861; conditions: at 10^−4 M concentration; cited from earlier work
[2] = DPPH radical scavenging assay; conditions: mean ± SEM of three experiments; 30 min, 517 nm
Experimental: The DPPH scavenging activity of all synthesized compounds was measured as previously described by Nahar et al.[48] with some modifications. Briefly, 100 µL of different concentrations of the tested compounds (12.5, 25, 50, 100, and 200 µg/mL) were pipetted into a 96-well plate. Then, 100 µL of 100-µM DPPH methanolic solution were added to each well and the plate was incubated protected from light at room temperature for 30 min. The absorbance of the solution was measured at λ517 nm.[49] Ascorbic acid was used as the positive control while DMSO was the negative control. The percentage of DPPH scavenging activity was calculated according to the following equation: % of DPPH scavenging=[(Acontrol–Asample)/Acontrol] ×100, where Acontrol is the absorbance of the control reaction (with all reagents except the test compound), and Asample is the absorbance of the test sample. […] All tests were performed in triplicates.

[3] = NO scavenging assay (sodium nitroprusside / Griess reagent); conditions: mean ± SEM of three experiments; 90 min, 546 nm
Experimental: The NO scavenging activity of all synthesized compounds was measured as previously described by Ho et al.[50] Briefly, 50 µL of different concentrations of the tested compounds (12.5, 25, 50,100, and 200 µg/mL) were pipetted into a 96-well plate. Then, 50 µL of 10-mM sodium nitroprussides dissolved in phosphate-buffered saline PBS (pH 7.4) were added to each well and the plate was incubated for 90 min at room temperature. Next, an equal volume of Griess reagent (1% of sulphanilamide and 0.1% of naphthyl ethylene diamine in 2.5% […]) was added to each well to measure the nitrite content. The absorbance of the formed pink-coloured chromophore was measured at λ 546 nm. DMSO and ascorbic acid were used as the negative and positive control, respectively. All tests were performed in triplicate. The percentage of NO scavenging activity was calculated according to the following equation: % of NO scavenging=[(Acontrol−Asample)/Acontrol]×100 where Acontrol is the absorbance of the control reaction (with all reagents except the test compound), and Asample is the absorbance of the test sample.

Soybean 15-LOX enzyme = molecular target: T1, Soybean 15-LOX enzyme (Glycine max, UniProt P08170); test: In vitro lipoxygenase inhibition (Cayman lipoxygenase inhibitor screening assay kit); assay type: biochemical; conditions: mean ± SEM of three experiments; substrate arachidonic acid
T1 construct: purchased Cayman Chemical 760700
T1 sequence (P08170 1-839): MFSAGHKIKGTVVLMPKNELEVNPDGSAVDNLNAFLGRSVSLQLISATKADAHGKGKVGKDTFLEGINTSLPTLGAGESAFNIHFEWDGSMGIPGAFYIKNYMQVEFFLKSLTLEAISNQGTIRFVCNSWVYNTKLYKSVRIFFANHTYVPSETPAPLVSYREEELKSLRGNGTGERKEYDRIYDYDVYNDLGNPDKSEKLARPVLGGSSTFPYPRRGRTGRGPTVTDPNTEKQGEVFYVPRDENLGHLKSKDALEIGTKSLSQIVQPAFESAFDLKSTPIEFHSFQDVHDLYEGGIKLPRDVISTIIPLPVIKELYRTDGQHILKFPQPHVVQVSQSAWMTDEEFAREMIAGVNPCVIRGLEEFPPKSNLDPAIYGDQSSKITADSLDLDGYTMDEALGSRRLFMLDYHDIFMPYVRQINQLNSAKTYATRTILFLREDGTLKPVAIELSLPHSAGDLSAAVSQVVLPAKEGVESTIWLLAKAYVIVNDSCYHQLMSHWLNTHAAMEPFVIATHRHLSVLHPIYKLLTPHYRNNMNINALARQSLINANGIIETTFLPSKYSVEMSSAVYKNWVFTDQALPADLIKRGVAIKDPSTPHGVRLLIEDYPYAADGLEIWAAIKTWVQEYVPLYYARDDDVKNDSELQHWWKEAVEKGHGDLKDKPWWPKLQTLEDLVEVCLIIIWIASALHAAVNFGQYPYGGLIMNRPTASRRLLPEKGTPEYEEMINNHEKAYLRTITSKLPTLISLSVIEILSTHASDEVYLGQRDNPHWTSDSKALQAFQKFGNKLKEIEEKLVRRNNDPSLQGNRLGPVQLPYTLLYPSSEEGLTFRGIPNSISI
Experimental: The assay was performed using Cayman’s lipoxygenase inhibitor screening assay kit (Catalog No. 760700, Cayman Chemical, USA) according to the manufacturer’s instructions. Briefly, 90 µL of 15-LOX was pipetted into a 96-well plate. Next, 10 µL of test compound at concentrations (2.5, 5.0 and 10 µM) dissolved in DMSO were added to each well. The reaction was initiated by adding 10 µL substrate (AA) and the plate was placed on a shaker for at least 5 minutes. Finally, 100 µL of chromogen (prepared according to manufacturer’s instructions) was added to each well to stop enzyme catalysis and develop the reaction. 100 µL of Assay buffer (0.1 M Tris-HCl, pH7.4) was used in blank wells. […] The absorbance of the solution was measured at λ 490–500 nm. The percentage inhibition was calculated according to the following equation: % inhibition =[(IA−Ainhibitor sample)/IA]×100 where (IA) is the 100% initial activity and (Ainhibitor sample) is the absorbance of the test sample. Dose–response curve was plotted between % inhibition and the drug concentration. The non-linear dose–response curve was used for calculating drug concentration showing 50% enzyme inhibition.

[4] = Superoxide scavenging assay (pyrogallol autoxidation); conditions: mean ± SEM of three experiments; pyrogallol autoxidation, 325 nm
Experimental: The improved pyrogallol autoxidation method was used to determine O2^−. RSA of all synthesized compounds as previously described. Briefly, 50 µL of test compounds (12.5, 25, 50,100, and 200 µg/mL) was added to 2900 µl of […] Tris HCl buffer (0.05 M, pH 7.4) containing 1-mM Na2EDTA. Next, 50 µL of 60-mM pyrogallol in1mM HCl had been thoroughly mixed with the mixture. The absorbance of the reaction mixture was measured at A325 nm every 30 s for 5 min. O2^− RSA was expressed by the oxidation degree of a test group in comparison to that of the control. The absorbance at 325 nm was measured against the Tris-HCl buffer every 30 s for 5 min. The percentage of scavenging effect was calculated using the following equation: O2^− radical scavenging %=[(ΔA325, control/T)−(ΔA325nm, sample/T)/ΔA325nm, control/T]×100 where ΔA325 nm, control is the increase in A325 nm of the reaction mixture without the sample and ΔA325 nm, sample is that for the mixture with the sample; T=5 min. The experiments were performed in triplicate.

[5] = test system: Catalase (CAT) activity in liver; test: In vivo catalase (CAT) activity in liver homogenate; design: species or system male Wistar albino rats; conditions: rat liver; 100 mg/kg orally for 3 days; mean ± SEM, n = 6
Experimental: (§1) The complete progress of the experiment was conducted using male Wistar albino rats (200–250 g), delivered by the Institutional Breeding House, Egypt, reared and maintained in the animal house of the institution. The animals had free access to food and water ad libitum and maintained in a controlled environment under standard conditions of temperature and humidity with an alternating 12 h light and dark cycle for about a week for acclimatization. The protocol of the study was approved by the Animal Ethics Committee of the Faculty of Pharmacy, Helwan University (ethical code number: 05A2019; date: October 2019). The study was conducted in accordance with the EC, directive 86/609/EEC for animal experiments.
(§2) Rats are weighed at the beginning and at the end of experiment. Fifty-four male albino rats (n=6) were divided into nine different groups. Group I served as a control group and treated with the same volume vehicle only. Group II treated with 100 mg/kg of Ascorbic acid as standard antioxidant drug. Groups (III–IX) orally administered 100 mg/kg of compounds 3a, 4e, 5b, 5c, 6a, 6c, 6e, respectively, for 3 days. The animals were sacrificed by cervical dislocation 24 h after the last dose. Sacrificing is carried out at the same time of the day, to avoid the circadian variation in the level of tissue GSH[53]. Each liver was excised, weighed, rinsed in ice-cold normal saline and frozen for not more than 72 h await analysis of endogenous antioxidant status (GSH levels and CAT activity) and lipid peroxide concentrations. For performing biochemical assays, a 10% liver homogenate in 10 mM phosphate buffer was prepared using tissue homogeniser (Glas-Col®, Cat no.099C K6424, TERRE HAUTE, USA).
Catalase activity in 10% liver homogenates was determined spectrophotometrically according to Sinha AK[54]. The decrease in absorbance at 240 nm due to H2O2 decomposition was measured and the results were expressed in U/mg tissue.

[6] = test system: glutathione (GSH) in liver; test: In vivo reduced glutathione (GSH) level in liver homogenate; design: species or system male Wistar albino rats; conditions: rat liver; 100 mg/kg orally for 3 days; mean ± SEM, n = 6
Experimental: as §1, §2
Levels of glutathione (GSH) in liver homogenates were assayed by the deproteinization of tissue homogenate. Then […] supernatant was mixed with di-potassium hydrogen phosphate buffer (pH 8) and 0.4% 5,5′-dithiobis-2-nitrobenzoic acid (Ellman’s reagent). The yellow-coloured substance formed was measured at 412 nm. The results were expressed as GSH mg/g tissue.

[7] = test system: lipid peroxidation (MDA) in liver; test: In vivo lipid peroxide level (TBARS/MDA) in liver homogenate; design: species or system male Wistar albino rats; conditions: rat liver; 100 mg/kg orally for 3 days; mean ± SEM, n = 6
Experimental: as §1, §2
Lipid peroxidation level in the liver homogenates was determined as thiobarbituric acid reactive substances (TBARS) by measuring malondialdehyde ‘MDA’ level according to Mihara and Uchiyama[56]. Briefly, 0.5 mL supernatant of tissue homogenate was mixed with 0.6% thiobarbituric acid (TBA) and 1% orthophosphoric acid solution, and heated in a boiling water bath for 45 min. The pink-coloured chromogen formed by the reaction of TBA with MDA was extracted by n-butanol and measured at 535 nm. The results were expressed as nmol/g tissue.

DPPH IC50 [2]: 21.28 ± 1.14 µg/mL | melting point: 156 to 157 °C | NO IC50 [3]: >200 µg/mL | IC50 (Soybean 15-LOX enzyme): 4 ± 0.06 µM
Structure (SMILES): COc1ccc(C2=NN(c3ccccc3)C(c3cn(-c4ccccc4)nc3-c3ccc4ccccc4c3)C2)cc1 (stereo not shown) [Compound 4b, 5-(4-Methoxyphenyl)-3′-naphthalen-2-yl-2,1′-diphenyl-3,4-dihydro-2H,1’H-[3,4′] bipyrazole]
Superoxide IC50 [4]: 65.63 ± 1.46 µg/mL

DPPH IC50 [2]: 12.06 ± 1.17 µg/mL | melting point: 187 to 188 °C | NO IC50 [3]: >200 µg/mL | IC50 (Soybean 15-LOX enzyme): 3.77 ± 0.07 µM
Structure (SMILES): Cc1ccc(C2=NNC(c3cn(-c4ccccc4)nc3-c3ccc4ccccc4c3)C2)cc1 (stereo not shown) [Compound 3c, 3’-Naphthalen-2-yl-1’-phenyl-5-p-tolyl-3,4-dihydro-2H, 1’H -[3,4’]bipyrazole]
Superoxide IC50 [4]: >200 µg/mL

DPPH IC50 [2]: 12.02 ± 0.63 µg/mL | melting point: 193 to 194 °C | NO IC50 [3]: 198.08 ± 1.28 µg/mL | IC50 (Soybean 15-LOX enzyme): 1.9 ± 0.06 µM
Structure (SMILES): COc1ccc(C2=NN(C(N)=S)C(c3cn(-c4ccccc4)nc3-c3ccc4ccccc4c3)C2)cc1 (stereo not shown) [Compound 6b]
Superoxide IC50 [4]: >200 µg/mL

The next lines start with the molecule.

Structure (SMILES): NS(=O)(=O)c1ccc(N2N=C(c3ccco3)CC2c2cnn(-c3ccccc3)c2)cc1 (stereo not shown) [XI]
DPPH scavenging activity [1]: 19%

Structure (SMILES): Cc1cc(C(C)(C)C)c(O)c(C(C)(C)C)c1 [BHT7, butylated hydroxy toluene]
DPPH scavenging activity [1]: 20%

Structure (SMILES): O=C1O[C@H]([C@@H](O)CO)C(O)=C1O [Ascorbic acid, reference compound]
CAT [5]: 42.56 ± 3.76 U/mg tissue | DPPH IC50 [2]: 13.67 ± 0.97 µg/mL | GSH [6]: 8.25 ± 0.45 mg/g tissue | NO IC50 [3]: 37.9 ± 1.31 µg/mL | TBARS [7]: 0.392 ± 0.07 nmol/g tissue | Superoxide IC50 [4]: 124.99 ± 1.32 µg/mL

Structure (SMILES): Clc1ccc(C2=NOC(c3cn(-c4ccccc4)nc3-c3ccc4ccccc4c3)C2)cc1Cl (stereo not shown) [Compound 5e, 3-(3,4-Dichlorophenyl)-5-(3-naphthalen-2-yl-1-phenyl-1H-pyrazol-4-yl)-4,5-dihydro isoxazole]
DPPH IC50 [2]: 38.44 ± 1.28 µg/mL | melting point: 187 to 189 °C | NO IC50 [3]: 96.56 ± 1.4 µg/mL | IC50 (Soybean 15-LOX enzyme): 3 ± 0.06 µM | Superoxide IC50 [4]: 168.77 ± 1.42 µg/mL
